Values quoted from earlier work, collected in publication PMC4728427, “Mechanism of allosteric activation of TMEM16A/ANO1 channels by a commonly used chloride channel blocker” (British Journal of Pharmacology, 2016).
Like-named read-outs stand apart in the source and are kept apart here.

Columns and labels:
[1] = test system: head and neck squamous cell carcinoma; set-up: method as in Duvvuri et al., 2012; settings: ref Duvvuri et al., 2012; cited from earlier work
TMEM16A [2] = test system: TMEM16A; set-up: method as in Namkung et al., 2011a; settings: ref Namkung et al., 2011a; read-out: IC50 TMEM16A inhibition; cited from earlier work
CFTR = test system: CFTR; set-up: method as in Oh et al., 2013; settings: ref Oh et al., 2013; cited from earlier work
TMEM16A [3] = test system: TMEM16A; set-up: method as in Oh et al., 2013; settings: ref Oh et al., 2013; read-out: IC50 TMEM16A inhibition; cited from earlier work
ClC‐2 = test system: ClC‐2; set-up: method as in Oh et al., 2013; settings: ref Oh et al., 2013; cited from earlier work
bestrophin 1 = test system: bestrophin 1; set-up: method as in Oh et al., 2013; settings: ref Oh et al., 2013; cited from earlier work
CaCC currents (TMEM16A) = test system: CaCC currents (TMEM16A); set-up: method as in Namkung et al., 2011b; settings: ref Namkung et al., 2011b; read-out: EC50 activation of CaCC currents; cited from earlier work

For `CCc1c(C)nc(SCC(=O)Nc2nc(-c3ccc(OC)cc3)cs2)[nH]c1=O` [T16inh‐A01], the tumour growth [1] is given as “reduced tumour growth” and the IC50 (TMEM16A [2]) is given as about 1 µM.
For `COc1cc(Nc2ccc([N+](=O)[O-])cc2C(=O)O)cc2ccccc12` [MONNA], the “interaction with CFTR” value (CFTR) is listed as “does not interact”, the IC50 (TMEM16A [3]) is listed as about 1 µM and the “interaction with ClC‐2” value (ClC‐2) is listed as “does not interact”. The “interaction with bestrophin 1” value (bestrophin 1) was “does not interact”.
In the case of `COCCN(C(=O)c1cc(OC)c(OC)c(OC)c1)c1nc(-c2ccccc2)cs1` [Eact], the EC50 (CaCC currents (TMEM16A)) is listed as 3 to 6 µM.
